Data on one compound can be found in BindingDB's records for doi:10.7270/Q2959KQ0 (n/a, 1993).

The test concerns the target T1, 5-hydroxytryptamine receptor 3A/3B (Rattus norvegicus, UniProt P35563+Q9JJ16).
T1 sequence (P35563 whole entry): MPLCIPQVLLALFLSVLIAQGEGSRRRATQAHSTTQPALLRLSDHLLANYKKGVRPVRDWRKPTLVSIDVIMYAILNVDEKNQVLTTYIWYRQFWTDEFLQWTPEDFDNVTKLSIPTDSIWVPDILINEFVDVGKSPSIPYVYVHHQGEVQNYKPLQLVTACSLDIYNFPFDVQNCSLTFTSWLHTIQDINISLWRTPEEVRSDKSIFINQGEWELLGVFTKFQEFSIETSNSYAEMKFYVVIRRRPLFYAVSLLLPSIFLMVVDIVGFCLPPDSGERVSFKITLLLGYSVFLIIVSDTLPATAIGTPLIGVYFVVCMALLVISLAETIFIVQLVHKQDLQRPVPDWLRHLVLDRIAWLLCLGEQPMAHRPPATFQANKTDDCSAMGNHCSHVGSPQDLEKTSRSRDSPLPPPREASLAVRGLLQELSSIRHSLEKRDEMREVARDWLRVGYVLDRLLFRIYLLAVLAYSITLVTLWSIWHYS
T1 sequence (Q9JJ16 whole entry): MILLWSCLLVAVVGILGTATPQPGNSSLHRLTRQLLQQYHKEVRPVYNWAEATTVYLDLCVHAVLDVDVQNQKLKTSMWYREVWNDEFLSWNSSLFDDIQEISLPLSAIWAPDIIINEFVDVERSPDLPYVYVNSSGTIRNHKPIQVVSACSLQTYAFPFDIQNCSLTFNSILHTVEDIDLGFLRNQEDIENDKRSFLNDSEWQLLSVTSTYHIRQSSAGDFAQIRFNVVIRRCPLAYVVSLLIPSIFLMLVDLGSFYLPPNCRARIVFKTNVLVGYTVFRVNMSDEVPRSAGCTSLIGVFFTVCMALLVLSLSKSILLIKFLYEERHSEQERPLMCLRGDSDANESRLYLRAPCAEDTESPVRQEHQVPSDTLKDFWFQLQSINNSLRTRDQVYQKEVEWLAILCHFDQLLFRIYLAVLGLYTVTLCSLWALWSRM
As to the kind of experiment: Binding affinity to 5-hydroxytryptamine 3 receptor was determined in rat cerebro cortical membranes using [3H]quipazine.

Usually Ki stands for a measure of affinity in units of concentration, obtained from inhibition or displacement.

Turning to `COc1cc(N)c(Cl)cc1C(=O)N[C@H]1CN2CCC1CC2` [4-Amino-N-(R)-1-aza-bicyclo[2.2.2]oct-3-yl-5-chloro-2-methoxy-benzamide], the inhibition constant (Ki) worked out at 3.2 nM. This counts as single-digit nanomolar.
